In PubChem BioAssay AID2060900 (Molecular Pharmacology Branch, DTP, NCI, 2025):

Test system: 521955-158-R2-J5-PDC complex spheroids, viability
Experiment: Anticancer human tumor 521955-158-R2-J5-PDC patient-derived pancreatic carcinoma cell line growth inhibition [RAS]
Details: for viability, T/C: stronger effect = lower value
Text: RAS pathway inhibitors in Combinations in Complex Spheroids
A high-throughput screen of multi-cell type tumor spheroids was designed to identify active combinations of RAS pathway inhibitors and targeted small molecules. Complex spheroids include a stromal component modeled by human endothelial cells (HUVEC) and fibroblasts modeled by human mesenchymal stem cells (MSCs). The concentration ranges selected for each drug and investigational agent were based upon clinically achievable concentrations if the clinical Cmax of the agent was known.
Compounds. The drugs and investigational agents: abemaciclib (NSC768073), cobimetinib (NSC768068), divarasib (GDC6063, NSC841802), docetaxel (NSC628503), GDC-1971 (RLY-1971, NSC841576), gemcitabine (NSC613327), inavolisib (NSC800729), ipatasertib (NSC767898), KB-0742 (NSC834161), MRTX-1133 (NSC836407), osimertinib (NSC779217), RMC-4630 (NSC839698), RMC-6236 (NSC851965), RMC-6291 (NSC852671), Ro-3306 (NSC812927), sapanisertib (NSC764658), SN-38 (NSC673596), staurosporine (NSC755774), SY5609 (NSC837396), and tovorafenib (DAY101, NSC766906), were obtained from the National Cancer Institute (NCI) Developmental Therapeutics Program Chemical Repository. The FDA-approved anticancer drug set is available from the NCI Developmental Therapeutics Program. […] The stock solutions were prepared in dimethyl sulfoxide (DMSO, Sigma-Aldrich, St. Louis, MO, cat. D2650) at 800-fold the tested concentration and stored at -70 degrees C prior to their use. All drugs and investigational agents were tested over a range starting from a high concentration at or near the clinical Cmax and decreasing in half-log increments. If the clinical Cmax for an agent had not been determined, the highest concentration tested was 10 microM.
Cell Culture. All cells were maintained in an incubator at 37 degrees C and 5% CO2 with 95% humidity. The PDC lines were cultured according to standard operating procedures established by the NCI PDMR. All PDCs were thawed and cultured in Matrigel-coated flasks prepared with a working solution of 1X Ham's F-12 nutrient mix, without supplementation (Invitrogen, Waltham, MA, cat. 11765054), 100 U/mL penicillin-streptomycin (Invitrogen, cat. 15140122), and 2.5% Matrigel (Corning Inc., Corning, NY, cat. 354248) for the first three passages. The 362531-283-R-J2-PDC and 782815-120-R-J1-PDC lines were cultured in 6C/Colon 1B media, which includes advanced DMEM/F-12 (Thermo Fisher Scientific, cat. 12634028), 10 mM HEPES (Thermo Fisher Scientific, cat. 15630080), 1X GlutaMAX supplement (Thermo Fisher Scientific, cat. 35050061), 0.1 mg/mL primocin (InvivoGen, San Diego, CA, cat. ant-pm-2), 10% defined fetal bovine serum, heat inactivated (HyClone Laboratories Inc., Logan, UT, cat. SH30070.03HI), 50% L-WRN conditioned media (ATCC, cat. CRL-3276), 1.25 mM N-Acetyl-L-cysteine (Sigma-Aldrich, cat. A9165), 10 mM nicotinamide (Sigma-Aldrich, cat. N0636), 1X B-27 supplement (Thermo Fisher Scientific, cat. 17504044), 1X N-2 supplement (Thermo Fisher Scientific, cat. 17502048), 50 ng/mL human EGF (Thermo Fisher Scientific, cat. PHG0311), and 10 microM Y-27632 dihydrochloride (Tocris Bioscience, cat. 1254). The K12877-001-R-J1-PDC line was cultured in 6I media, which includes all 6C/Colon 1B media plus 10 ng/mL human FGF-10 (PeproTech, cat. 100-26), 1 ng/mL human FGF-2 (PeproTech, cat. 100-18B), 1 µM prostaglandin E2 (Tocris Bioscience, cat. 2296), […] hydrocortisone (Sigma-Aldrich, cat. H4001), and […] bovine insulin (Sigma-Aldrich, cat. I6634). The K86415-001-R-J1-PDC line was cultured in 6D media, which includes all 6C/Colon 1B media components minus the L-WRN conditioned media. The 485176-168-R4-J1-PDC was cultured in PANC media, which includes all 6C/Colon 1B media plus 100 ng/mL human FGF-10 (PeproTech, cat. 100-26), 500 nM SB-431542 (Selleckchem, cat. S1067), and 10 nM gastrin (Tocris Bioscience, cat. 3006). […]

[1] = curve of first compound, second compound 0.00316 µM
[2] = curve of first compound, second compound 0.01 µM
[3] = curve of first compound, second compound 0.0316 µM
[4] = curve of first compound, second compound 0.1 µM
[5] = curve of first compound, second compound 0.316 µM
[6] = curve of first compound, second compound 1 µM
[7] = second compound 0.00316 µM, first compound 0.0316 µM
[8] = second compound 0.00316 µM, first compound 0.1 µM
[9] = second compound 0.00316 µM, first compound 0.316 µM
[10] = second compound 0.00316 µM, first compound 1 µM
[11] = second compound 0.01 µM, first compound 0.0316 µM
[12] = second compound 0.01 µM, first compound 0.1 µM
[13] = second compound 0.01 µM, first compound 0.316 µM
[14] = second compound 0.01 µM, first compound 1 µM
[15] = second compound 0.0316 µM, first compound 0.0316 µM
[16] = second compound 0.0316 µM, first compound 0.1 µM
[17] = second compound 0.0316 µM, first compound 0.316 µM
[18] = second compound 0.0316 µM, first compound 1 µM
[19] = second compound 0.1 µM, first compound 0.0316 µM
[20] = second compound 0.1 µM, first compound 0.1 µM
[21] = second compound 0.1 µM, first compound 0.316 µM
[22] = second compound 0.1 µM, first compound 1 µM
[23] = second compound 0.316 µM, first compound 0.0316 µM
[24] = second compound 0.316 µM, first compound 0.1 µM
[25] = second compound 0.316 µM, first compound 0.316 µM
[26] = second compound 0.316 µM, first compound 1 µM
[27] = second compound 1 µM, first compound 0.0316 µM
[28] = second compound 1 µM, first compound 0.1 µM
[29] = second compound 1 µM, first compound 0.316 µM
[30] = second compound 1 µM, first compound 1 µM
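Further: compound exposure lasted seven days before the viability read.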
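Wherever viability, T/C is given: spheroids also contain HUVEC endothelial cells and mesenchymal stem cells as stroma.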

CCN1CCN(Cc2ccc(Nc3ncc(F)c(-c4cc(F)c5nc(C)n(C(C)C)c5c4)n3)nc2)CC1
viability, T/C (compound 0.00316 µM): 102% [middle of 4 runs] | viability, T/C (compound 0.0316 µM): 87% [middle of 4 runs] | viability, T/C (compound 0.1 µM): 81.5% [middle of 4 runs] | IC50 (curve of compound): > 1000 nM

Cc1nc(N2CCC3(CC2)COC(C)C3N)c(CO)nc1Sc1ccnc(N)c1Cl (stereo not drawn) + C=CC(=O)N1CCN(c2nc(OCC3CCCN3C)nc3c(F)c(-c4nc(N)cc(C)c4C(F)(F)F)c(Cl)cc23)C(C)C1
IC50 [1]: > 10000 nM | IC50 [2]: > 10000 nM | IC50 [3]: > 10000 nM | IC50 [4]: > 10000 nM | IC50 [5]: > 10000 nM | IC50 [6]: > 10000 nM | viability, T/C [7]: 88.7% | viability, T/C [8]: 77.2% | viability, T/C [9]: 69.8% | viability, T/C [10]: 70.5% | viability, T/C (second compound 0.00316 µM, first compound 3.16 µM): 60.1% | viability, T/C (second compound 0.00316 µM, first compound 10 µM): 56.8% | viability, T/C [11]: 81.2% | viability, T/C [12]: 79% | viability, T/C [13]: 64.6% | viability, T/C [14]: 64.2% | viability, T/C (second compound 0.01 µM, first compound 3.16 µM): 60.3% | viability, T/C (second compound 0.01 µM, first compound 10 µM): 63.3% | viability, T/C [15]: 73.8% | viability, T/C [16]: 90.9% | viability, T/C [17]: 72.1% | viability, T/C [18]: 71.6% | viability, T/C (second compound 0.0316 µM, first compound 3.16 µM): 60.7% | viability, T/C (second compound 0.0316 µM, first compound 10 µM): 56.9% | viability, T/C [19]: 101% | viability, T/C [20]: 78.5% | viability, T/C [21]: 70.5% | viability, T/C [22]: 63.2% | viability, T/C (second compound 0.1 µM, first compound 3.16 µM): 63% | viability, T/C (second compound 0.1 µM, first compound 10 µM): 54.1% | viability, T/C [23]: 100% | viability, T/C [24]: 80.3% | viability, T/C [25]: 61% | viability, T/C [26]: 61.3% | viability, T/C (second compound 0.316 µM, first compound 3.16 µM): 64.8% | viability, T/C (second compound 0.316 µM, first compound 10 µM): 56% | viability, T/C [27]: 106% | viability, T/C [28]: 70.1% | viability, T/C [29]: 66.5% | viability, T/C [30]: 62.6% | viability, T/C (second compound 1 µM, first compound 3.16 µM): 55.3% | viability, T/C (second compound 1 µM, first compound 10 µM): 48.3%

CCN1CCN(Cc2ccc(Nc3ncc(F)c(-c4cc(F)c5nc(C)n(C(C)C)c5c4)n3)nc2)CC1 + C=CC(=O)N1CCN(c2nc(OCC3CCCN3C)nc3c(F)c(-c4nc(N)cc(C)c4C(F)(F)F)c(Cl)cc23)C(C)C1
IC50 [1]: > 1000 nM | IC50 [2]: > 1000 nM | IC50 [3]: > 1000 nM | IC50 [4]: > 1000 nM | IC50 [5]: > 1000 nM | IC50 [6]: > 1000 nM | viability, T/C (second compound 0.00316 µM, first compound 0.00316 µM): 121% | viability, T/C (second compound 0.00316 µM, first compound 0.01 µM): 89.3% | viability, T/C [7]: 85.3% | viability, T/C [8]: 85.2% | viability, T/C [9]: 140% | viability, T/C [10]: 102% | viability, T/C (second compound 0.01 µM, first compound 0.00316 µM): 87.2% | viability, T/C (second compound 0.01 µM, first compound 0.01 µM): 126% | viability, T/C [11]: 76.5% | viability, T/C [12]: 120% | viability, T/C [13]: 104% | viability, T/C [14]: 108% | viability, T/C (second compound 0.0316 µM, first compound 0.00316 µM): 101% | viability, T/C (second compound 0.0316 µM, first compound 0.01 µM): 148% | viability, T/C [15]: 88.9% | viability, T/C [16]: 110% | viability, T/C [17]: 93.6% | viability, T/C [18]: 98.4% | viability, T/C (second compound 0.1 µM, first compound 0.00316 µM): 147% | viability, T/C (second compound 0.1 µM, first compound 0.01 µM): 103% | viability, T/C [19]: 115% | viability, T/C [20]: 110% | viability, T/C [21]: 108% | viability, T/C [22]: 112% | viability, T/C (second compound 0.316 µM, first compound 0.00316 µM): 145% | viability, T/C (second compound 0.316 µM, first compound 0.01 µM): 109% | viability, T/C [23]: 80.9% | viability, T/C [24]: 96.4% | viability, T/C [25]: 107% | viability, T/C [26]: 97.6% | viability, T/C (second compound 1 µM, first compound 0.00316 µM): 120% | viability, T/C (second compound 1 µM, first compound 0.01 µM): 92% | viability, T/C [27]: 81.8% | viability, T/C [28]: 75.6% | viability, T/C [29]: 93.5% | viability, T/C [30]: 100%
